Earlier results as cited in patent US8729024B2, “Targeted delivery of pharmaceutical compounds” (The Resesarch Foundation of State University of New York, priority 2006, dated 2014).

System: animal models of Duchenne muscular dystrophy (DMD), multiple sclerosis, myasthenia gravis, hearing loss and traumatic nerve injury

**Q.** Which “therapeutic effect in animal models” value does the source give for `CC(=O)N[C@@H](CC(C)C)C(=O)N[C@@H](CC(C)C)C(=O)N[C@H](C=O)CCCNC(=N)N` [leupeptin] here?
**A.** therapeutic benefit
